# Measurements reported in US20130280188A1, “SELF-TANNING COSMETIC” (KAO CORPORATION, priority 2012, published 2013).
# Assays:
# [1] = target: T1, olfactory receptor OR5K1 (Homo sapiens, UniProt Q8NHB7); experiment: Luciferase reporter gene assay of olfactory receptor response in HEK293 cells; type: cell-based; conditions: for Concentration-dependent response of OR5K1: 0, 3, 10, 30, 100, 300, and 1000 μM, HEK293 cells with RTP1S variant, FIG. 5
# T1 construct: expressed in transfected cells; host or cells: HEK293
# T1 sequence (Q8NHB7 1-308): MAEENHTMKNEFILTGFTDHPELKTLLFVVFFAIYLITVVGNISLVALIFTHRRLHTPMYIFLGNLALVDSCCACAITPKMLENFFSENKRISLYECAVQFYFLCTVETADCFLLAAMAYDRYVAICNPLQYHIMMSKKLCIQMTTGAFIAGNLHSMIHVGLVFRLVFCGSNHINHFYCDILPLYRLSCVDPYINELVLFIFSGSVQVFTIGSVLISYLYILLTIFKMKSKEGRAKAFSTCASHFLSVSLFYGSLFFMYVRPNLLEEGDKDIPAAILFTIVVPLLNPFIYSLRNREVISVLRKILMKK
# Source text: Human olfactory receptors were cloned based on sequence information registered in GenBank by PCR using human genomic DNA female (G1521: Promega Corporation) as a template. Each gene amplified by FCR was incorporated into pENTR vector (Invitrogen Inc.) in accordance with the manual and recombined to the NotI and AscI sites located downstream of a Flag-Rho tag sequence in a pME18S vector using the NotI and AscI sites present on the pENTR vector.
# An RTP1S variant gene (SEQ ID NO: 3) encoding an RTP1S variant (SEQ ID NO: 4) was incorporated into the EcoRI and XhoI sites of a pME18S vector.
# HEK293 cells expressing 373 types of human olfactory receptors were produced. A reaction solution having a composition shown in Table 2 was prepared, left to stand in a clean bench for 15 min and then was dispensed in each well of a 96 well plate (Becton, Dickinson and Company). Subsequently, HEK293 cells (100 μL, 3×10^5 cells/cm^2) were seeded in each well and cultured in an incubator at 37° C. under 5 mass % CO2 for 24 hours.
# An olfactory receptor expressed in HEK293 cells couples with endogenous Gas in the cells to activate adenylate cyclase and thereby increases the amount of intracellular cAMP. In this study, the odor response was measured by luciferase reporter gene assay which monitors an increase in amount of intracellular cAMP as the luminescence value derived from a firefly luciferase gene (fluc2P-CRE-hygro). A Renilla luciferase gene was fused with the downstream of a CMV promoter (hRluc-CMV) and was also introduced to HEK293 cells as an internal standard to correct errors in gene transfer efficiency and number of cells.
# The culture medium was removed from the culture produced in the above 3), and 75 μL of a solution prepared with a CD293 medium (Invitrogen Inc.) so as to contain a pyrazine derivative (1 mM 2,6-dimethylpyrazine) was added thereto. The cells were cultured in a CO2 incubator for 2.5 hours to sufficiently express the luciferase gene in the cells. The luciferase activity was measured with a Dual-Glo™ luciferase assay system (Promega Corporation) in accordance with the operating manual of the system. The fold increases were calculated by dividing the luminescence value derived from firefly luciferase induced by stimulation with the odor substances by the luminescence value in cells not stimulated with the odor substances and were used as an index of response strength.
# Olfactory receptor OR5K1 (SEQ ID NO: 2) was expressed in HEK293 cells together with an RTP1S variant (SEQ ID NO: 4) by the same procedure as in Test Example 3, and the dependency of the response on the concentration (0, 3, 10, 30, 100, 300, and 1000 μM) in various pyrazine compounds was investigated. The pyrazine compounds used in this Example were pyrazine and pyrazine derivatives selected from the group consisting of 2-methylpyrazine, 2,3-dimethylpyrazine, 2,5-dimethylpyrazine, 2,3,5-trimethylpyrazine, 2,3,5,6-tetramethylpyrazine, and 2-ethylpyrazine.
# [2] = target: T1, olfactory receptor OR5K1; experiment: Antagonist activity against OR5K1 response to 2,6-dimethylpyrazine (luciferase assay, HEK293 cells); type: cell-based; conditions: HEK293 cells expressing OR5K1; for Receptor response-inhibiting rate: 2,6-dimethylpyrazine 1 mM and test material 300 μM (cytotoxic perfumes: 333 μM and 100 JAM); for Antagonist activity on the response of OR5K1 to pyrazine derivatives: 2,6-dimethylpyrazine 1 mM and test material 300 μM
# Experimental: Antagonist activities of 174 test materials against olfactory receptor OR5K1 were investigated by examining response of OR5K1 to a pyrazine derivative.
# 2,6-Dimethylpyrazine (1 mM) and each of the test materials (300 μM) were added to HEK293 cells expressing olfactory receptor OR5K1 by the same procedure as in Test Example 4, and the response of the olfactory receptor to 2,6-dimethylpyrazine was measured to evaluate a change in response of the receptor due to addition of the test material. Perfumes recognized to have cytotoxicity were re-evaluated using a mixture of 333 μM of 2,6-dimethylpyrazine and 100 JAM of a test material.
# The receptor response-inhibiting rate of a test material was calculated as follows. The receptor activity (X−Y) by stimulation with 2,6-dimethylpyrazine alone was determined by subtracting the luminescence value (Y) in cells to which the receptor was introduced but were not stimulated with 2,6-dimethylpyrazine from the luminescence value (X) derived from firefly luciferase induced by odor stimulation with 2,6-dimethylpyrazine alone. Similarly, the receptor activity (Z−Y) in the presence of a test material was determined by subtracting the luminescence value (Y) in cells not stimulated with 2,6-dimethylpyrazine from the luminescence value (Z) stimulated with a mixture of 2,6-dimethylpyrazine and the test material. The reduction rate of the receptor activity (Z−Y) in the presence of a test material to the receptor activity (X−Y) by stimulation with 2,6-dimethylpyrazine alone was calculated by the following computation expression:
# Inhibition rate (%)={1−(Z−Y)/(X−Y)}×100,
# to determine the receptor response-inhibiting rate of the test material. In the measurement, multiple independent experiments were performed in duplicate, and the average of each experiment was used.
SMILES,Concentration-dependent response of OR5K1 [1],Receptor response-inhibiting rate [2],Antagonist activity on the response of OR5K1 to pyrazine derivatives [2],"Response of olfactory receptor OR5K1 ([1]; 1 mM, screen of 373 types of human olfactory receptors in HEK293 cells, FIG. 4)"
"Cc1cnc(C)c(C)n1 [2,3,5-trimethylpyrazine]",concentration-dependently responded,,,
c1cnccn1 [pyrazine],did not respond,,,
"CC(C)CC1CC(C)(O)CCO1 (stereo not drawn) [Florosa, 4-methyl-2-(2-methylpropyl)tetrahydro-2H-4-pyranol]",,Not inhibited,no antagonist activity,
"Cc1cnccn1 [2-Methyl pyrazine, 2-methylpyrazine]",concentration-dependently responded,,,
"CC(=O)CCc1ccc(O)cc1 [Raspberry ketone, 4-(p-hydroxyphenyl)-2-butanone]",,Not inhibited,no antagonist activity,
"CC(C=O)Cc1ccc(C(C)C)cc1 (stereo not drawn) [Cyclamen aldehyde, 2-methyl-3-(4-iso-propylphenyl)propanal]",,75% or more,antagonist activity,
"Cc1nccnc1C [2,3-dimethylpyrazine]",concentration-dependently responded,,,
"CCCCCC1C(=O)CCC1CC(=O)OC (stereo not drawn) [Methyl dihydrojasmonate, methyl dihydrojasmonate]",,Not inhibited,no antagonist activity,
"Cc1cncc(C)n1 [2,6-Dimethyl pyrazine, 2,6-dimethylpyrazine]",concentration-dependently responded,,,responded
"Cc1nc(C)c(C)nc1C [2,3,5,6-tetramethylpyrazine]",concentration-dependently responded,,,
"CCC=C(C)C(O)CCCCC (stereo not drawn) [Undecavertol, 4-methyl-3-decen-5-ol]",,75% or more,antagonist activity,
CCc1cnccn1 [2-ethylpyrazine],concentration-dependently responded,,,
"CCC(=CCC1CC=C(C)C1(C)C)CO (stereo not drawn) [Bangalol, 2-ethyl-4-(2,2,3-trimethyl-3-cyclopenten-1-yl)-2-buten-1-ol]",,75% or more,antagonist activity,
"Cc1cnc(C)cn1 [2,5-Dimethyl pyrazine, 2,5-dimethylpyrazine]",concentration-dependently responded,,,
